Results as given in ChEMBL document CHEMBL5625249, “Optimization and antifungal activity of quinoline derivatives linked to chalcone moiety combined with FLC against Candida albicans” (Eur J Med Chem, 2023).
Converted amounts (≈) assume the structure as drawn. The source made the active and inactive calls. No cut-off for these calls is given here.

Experiments:
[1] = Toxicity in Balb/c mouse infected with FLC-resistant Candida albicans ATCC 14053 assessed as weight loss at 2 mg/kg, ig measured daily for 6 days; format: organism-based; conditions: in vivo, po, 144 h, time 6 day
[2] = test system: Candida albicans; test: Antifungal activity against FLC-sensitive Candida albicans SC5314 measured after 24 hrs by microdilution method; format: functional
[3] = test system: Candida albicans; test: Antifungal activity against Clinical FLC-resistant Candida albicans 23 measured after 24 hrs by microdilution method; format: functional
[4] = test system: Candida albicans; test: Antifungal activity against clinical FLC-resistant Candida albicans 187 measured after 24 hrs by microdilution method; format: functional
[5] = test system: Candida albicans; test: Antifungal activity against clinical FLC-resistant Candida albicans 808 measured after 24 hrs by microdilution method; format: functional
[6] = test system: Candida albicans; test: Antifungal activity against clinical FLC-resistant Candida albicans 381 measured after 24 hrs by microdilution method; format: functional
[7] = test system: Candida albicans; test: Antifungal activity against clinical FLC-resistant Candida albicans 602 measured after 24 hrs by microdilution method; format: functional
[8] = test system: Candida albicans; test: Antifungal activity against clinical FLC-resistant Candida albicans 550 measured after 24 hrs by microdilution method; format: functional
[9] = test system: Candida albicans; test: Antifungal activity against clinical FLC-resistant Candida albicans 800 measured after 24 hrs by microdilution method; format: functional
[10] = test system: Candida albicans; test: Antifungal activity against clinical FLC-resistant Candida albicans 799 measured after 24 hrs by microdilution method; format: functional
[11] = test system: Candida albicans; test: Antifungal activity against clinical FLC-resistant Candida albicans 3816 measured after 24 hrs by microdilution method; format: functional
[12] = test system: Candida albicans; test: Antifungal activity against clinical FLC-resistant Candida albicans 4508 measured after 24 hrs by microdilution method; format: functional
[13] = test system: Candida albicans; test: Antifungal activity against clinical FLC-resistant Candida albicans 3511 measured after 24 hrs by microdilution method; format: functional
[14] = test system: Candida albicans; test: Antifungal activity against clinical FLC-resistant Candida albicans 4574 measured after 24 hrs by microdilution method; format: functional
[15] = test system: Candida albicans; test: Antifungal activity against FLC-resistant Candida albicans ATCC 10231 measured after 24 hrs by microdilution method; format: functional
[16] = test system: Candida albicans; test: Antifungal activity against FLC-resistant Candida albicans ATCC 14053 measured after 24 hrs by microdilution method; format: functional
[17] = test system: Candida albicans; test: Antifungal activity against FLC-resistant Candida albicans ATCC 14053 at 1 ug/mL measured over 48 hrs by time-killing assay; format: functional, organism-based; conditions: dose 1.0 µg/ml
[18] = test system: Candida albicans; test: Antifungal activity against FLC-resistant Candida albicans ATCC 14053 cultured in spider medium assessed as inhibition of hyphal formation at 1 ug/ml measured after 2 hrs by inverted microscopy; format: functional, organism-based; conditions: dose 1.0 µg/ml
[19] = test system: Candida albicans; test: Antifungal activity against FLC-resistant Candida albicans ATCC 14053 assessed as inhibition of hyphal formation by measuring down regulation of RAS1 gene expression at 8 ug/ml measured after 16 to 18 hrs by qRT-PCR analysis; format: functional, organism-based; conditions: dose 8.0 µg/ml, time 16-18 hrs
[20] = test system: Candida albicans; test: Antifungal activity against FLC-resistant Candida albicans ATCC 14053 assessed as inhibition of hyphal formation by measuring down regulation of CYR1 gene expression at 8 ug/ml measured after 16 to 18 hrs by qRT-PCR analysis; format: functional, organism-based; conditions: dose 8.0 µg/ml, time 16-18 hrs
[21] = test system: Candida albicans; test: Antifungal activity against FLC-resistant Candida albicans ATCC 14053 assessed as inhibition of hyphal formation by measuring down regulation of EFG1 gene expression at 8 ug/ml measured after 16 to 18 hrs by qRT-PCR analysis; format: functional, organism-based; conditions: dose 8.0 µg/ml, time 16-18 hrs
[22] = test system: Candida albicans; test: Antifungal activity against FLC-resistant Candida albicans ATCC 14053 assessed as inhibition of hyphal formation by measuring down regulation of ECE1 gene expression at 8 ug/ml measured after 16 to 18 hrs by qRT-PCR analysis; format: functional, organism-based; conditions: dose 8.0 µg/ml, time 16-18 hrs
[23] = test system: Candida albicans; test: Antifungal activity against FLC-resistant Candida albicans ATCC 14053 assessed as inhibition of hyphal formation by measuring down regulation of ALS3 gene expression at 8 ug/ml measured after 16 to 18 hrs by qRT-PCR analysis; format: functional, organism-based; conditions: dose 8.0 µg/ml, time 16-18 hrs
[24] = test system: Candida albicans; test: Antifungal activity against FLC-resistant Candida albicans ATCC 14053 assessed as inhibition of hyphal formation by measuring down regulation of HWP1 gene expression at 8 ug/ml measured after 16 to 18 hrs by qRT-PCR analysis; format: functional, organism-based; conditions: dose 8.0 µg/ml, time 16-18 hrs
[25] = test system: Candida albicans; test: Antifungal activity against FLC-resistant Candida albicans ATCC 14053 cultured in SD +10% FBS liquid medium assessed as inhibition of hyphal formation at 1 ug/ml measured after 2 hrs by inverted microscopy; format: functional, organism-based; conditions: dose 1.0 µg/ml
[26] = test system: Candida albicans; test: Induction of reactive oxygen species production in FLC-resistant Candida albicans ATCC 14053 at 1 ug/mL measured after 16 to 18 hrs by DCFH-DA staining based fluorescence assay; format: functional, organism-based; conditions: dose 1.0 µg/ml, time 16-18 hrs
[27] = test system: Candida albicans; test: Induction of mitochondrial membrane potential loss in FLC-resistant Candida albicans ATCC 14053 at 1 ug/mL measured after 16 to 18 hrs by JC-1 staining based fluorescence assay; format: functional, organism-based; conditions: dose 1.0 µg/ml, time 16-18 hrs
[28] = test system: Candida albicans; test: Antifungal activity against FLC-resistant Candida albicans ATCC 14053 assessed as reduction in intracellular ATP level at 1 ug/ml measured after 16 to 18 hrs by luminescence assay; format: functional, organism-based; conditions: dose 1.0 µg/ml, time 16-18 hrs
[29] = Toxicity in Balb/c mouse assessed as death at 2 mg/kg, ig measured daily for 6 days; format: organism-based; conditions: in vivo, po, 144 h, time 6 day
[30] = test system: Candida albicans; test: In vivo antifungal activity against FLC-resistant Candida albicans ATCC 14053 infected in Balb/c mouse assessed as survival rate at 2 mg/kg, ig measured daily for 6 days (Rvb < 20%); format: functional; conditions: ATCC 14053, po, 144 h, time 6 day
[31] = Toxicity in Balb/c mouse assessed as weight loss at 2 mg/kg, ig measured daily for 6 days; format: organism-based; conditions: in vivo, po, 144 h, time 6 day
[32] = test system: Candida albicans; test: In vivo antifungal activity against FLC-resistant Candida albicans ATCC 14053 infected in Balb/c mouse assessed as reduction in kidney fungal load at 2 mg/kg, ig measured after 6 days; format: functional, organism-based; conditions: time 6.0 day
[33] = test system: Candida albicans; test: In vivo antifungal activity against FLC-resistant Candida albicans ATCC 14053 infected in Balb/c mouse assessed as reduction in lung fungal load at 2 mg/kg, ig measured after 6 days; format: functional, organism-based; conditions: time 6.0 day
[34] = test system: Candida albicans; test: In vivo antifungal activity against FLC-resistant Candida albicans ATCC 14053 infected in Balb/c mouse assessed as increase in organ coefficients of thymus at 2 mg/kg, ig measured after 6 days; format: functional, organism-based; conditions: time 6.0 day
[35] = test system: Candida albicans; test: In vivo antifungal activity against FLC-resistant Candida albicans ATCC 14053 infected in Balb/c mouse assessed as increase in organ coefficients of spleen at 2 mg/kg, ig measured after 6 days; format: functional, organism-based; conditions: time 6.0 day
[36] = test system: Candida albicans; test: In vivo antifungal activity against FLC-resistant Candida albicans ATCC 14053 infected in Balb/c mouse assessed as restoration of normal kidney morphology at 2 mg/kg, ig measured after 6 days by H and E staining based histopathological analysis; format: functional, organism-based; conditions: time 6.0 day
[37] = test system: Candida albicans; test: In vivo antifungal activity against FLC-resistant Candida albicans ATCC 14053 infected in Balb/c mouse assessed as restoration of normal glomeruli morphology at 2 mg/kg, ig measured after 6 days by H and E staining based histopathological analysis; format: functional, organism-based; conditions: time 6.0 day
[38] = test system: Candida albicans; test: In vivo antifungal activity against FLC-resistant Candida albicans ATCC 14053 infected in Balb/c mouse assessed as restoration of normal lung morphology at 2 mg/kg, ig measured after 6 days by H and E staining based histopathological analysis; format: functional, organism-based; conditions: time 6.0 day
[39] = test system: Candida albicans; test: In vivo antifungal activity against FLC-resistant Candida albicans ATCC 14053 infected in Balb/c mouse assessed as reduction in severity of lesions in lungs at 2 mg/kg, ig measured after 6 days by H and E staining based histopathological analysis; format: functional, organism-based; conditions: time 6.0 day
[40] = test system: Candida albicans; test: In vivo antifungal activity against FLC-resistant Candida albicans ATCC 14053 infected in Balb/c mouse assessed as reduction in severity of lesions in kidney at 2 mg/kg, ig measured after 6 days by H and E staining based histopathological analysis; format: functional, organism-based; conditions: time 6.0 day
[41] = test system: Candida albicans; test: In vivo antifungal activity against FLC-resistant Candida albicans ATCC 14053 infected in Balb/c mouse assessed as reduction in renal injury at 2 mg/kg, ig measured after 6 days by H and E staining based histopathological analysis; format: functional, organism-based; conditions: time 6.0 day
[42] = test system: Candida albicans; test: In vivo antifungal activity against FLC-resistant Candida albicans ATCC 14053 infected in Balb/c mouse assessed as reduction in infiltration of inflammatory cells at 2 mg/kg, ig measured after 6 days by H and E staining based histopathological analysis; format: functional, organism-based; conditions: time 6.0 day
[43] = test system: Candida albicans; test: In vivo antifungal activity against FLC-resistant Candida albicans ATCC 14053 infected in Balb/c mouse assessed as removal of colonized fungi at 2 mg/kg, ig measured after 6 days by H and E staining based histopathological analysis; format: functional, organism-based; conditions: time 6.0 day

OC(Cn1cncn1)(Cn1cncn1)c1ccc(F)cc1F [FLUCONAZOLE]
Activity [1]: Toxic | MIC80 [2]: 5.79 µg/mL (≈ 18.9 µM) | MIC80 [3]: > 40 µg/mL | MIC80 [4]: > 40 µg/mL | MIC80 [5]: > 40 µg/mL | MIC80 [6]: > 40 µg/mL | MIC80 [7]: > 40 µg/mL | MIC80 [8]: > 40 µg/mL | MIC80 [9]: > 40 µg/mL | MIC80 [10]: > 40 µg/mL | MIC80 [11]: > 40 µg/mL | MIC80 [12]: > 40 µg/mL | MIC80 [13]: > 40 µg/mL | MIC80 [14]: > 40 µg/mL | MIC80 [15]: > 40 µg/mL | MIC80 [16]: > 40 µg/mL | Activity [17]: Active | inhibition [18]: inactive | inhibition [19]: Active | inhibition [20]: Active | inhibition [21]: Active | inhibition [22]: Active | inhibition [23]: Active | inhibition [24]: Active | inhibition [25]: inactive | Activity [26]: Active | Activity [27]: Active | Activity [28]: Active | Activity [29]: Non-Toxic | survival at 2 mg/kg [30]: 30% | Activity [31]: Non-Toxic | Activity [32]: Active | Activity [33]: inactive | Activity [34]: Active | Activity [35]: Active | Activity [36]: inactive | Activity [37]: inactive | Activity [38]: inactive | Activity [39]: inactive | Activity [40]: inactive | Activity [41]: inactive | Activity [42]: inactive | Activity [43]: inactive
